Reference: US20070098864A1, “PROCESS FOR PREPARING FORMULATIONS OF […] […] SPRAY FREEZING DRYING” (priority 2004, published 2007)

Experiments:
[1] = Modulated differential scanning calorimetry (glass transition temperature) of THC/inulin powders; type: physicochemical; conditions: MDSC
Method: Thermal behaviour of the spray freeze dried powders was determined by modulated differential scanning calorimetry (MDSC) on a differential scanning calorimeter (DSC2920, TA Instruments, Gent, Belgium). A modulation amplitude of 0.318° C., a modulation period of 60 seconds and a heating rate of 2° C./min was used. Calibration was performed with indium. Standard aluminium sample pans were used. During measurement, the sample cell was purged with nitrogen at a flow rate of 35 mL/min. Before scanning, the sample pan was heated at 2° C./min to 50° C. to remove all residual moisture. Subsequently, the sample was cooled to −20° C. and then scanned up to 180° C. The glass transition temperature (Tg) was defined as the inflection point of the change in specific heat in the reversing signal.

[2] = Stability study of THC (HPLC) in climate chambers
Method: To investigate the degradation of pure THC, 20 mL glass vials were charged with 70 μL of a solution of THC in methanol containing 2.52 mg THC. They were left overnight under a flow of dry nitrogen to allow for methanol evaporation. The resulting thin layers of THC spread over the bottom of the vials (4.5 cm^2). Spray freeze dried and freeze dried material containing THC were weighed in vials. All samples were stored in climate chambers of 20° C./45% RH and 60° C./8% RH. Samples (n=3) were taken at different time intervals and analysed by means of HPLC using the method described by van Drooge et al. (Eur. J. Pharm. Sci. 2004, 21, 511-518). Briefly, samples were extracted with methanol. A Waters 717+ autosampler was used to inject 50 μL of supernatant on a precolumn (HPLC precolum inserts, μBondapak C18 Guardpak) followed by a Chrompack Nucleosil 100 C18 column (4.6×250 mm). Absorbance at 214 nm was measured with a UV detector (Shimadzu SPD-M6A). Chromatograms and peak areas were analysed with an integrator (waters 741 Data Module) and Kromasystem 2000 software. The flow rate of the eluens (methanol/water 92/8 (v/v) plus 5 drops concentrated sulphuric acid per litre eluens) was set at 1.0 mL/min. […] In every series of HPLC-runs some calibration samples were included.

SMILES: CCCCCc1cc(O)c2c(c1)OC(C)(C)[C@@H]1CCC(C)=C[C@@H]21 [pure THC, Δ^9-tetrahydrocannabinol]
- Tg ([1]; pure substance): 9.3 °C
- 1st Tg (° C.) ([1]; spray freeze dried, Tg of THC): 9.3 ± 1.0 °C
- time to complete degradation ([2]; exposed to air of 20° C./45% RH): ≤ 50 days
- time to complete degradation ([2]; storage at 60° C./8% RH): ≤ 15 days
